In US20030207813A1, “Retroviral protease inhibitor combinations” (priority 1995, published 2003):
Values after ≈ are worked out from the molar mass of the structure shown.

Columns and labels:
HIV-1RF = experiment: CEM-T4 cell infection assay, reverse transcriptase readout, isolate RF; format: cell-based; conditions: Human immunodeficiency virus 1, CEM-T4, 168 h, Table 6, CEM-T4 cells, 7 days, read-out: Virus Isolate (EC50 ng/mL) RF
Text: (§1) RF represents the HIV-1 strain HIV-LRF and RFR represents a mixture of resistant strains obtained by selection of RF against the compound of Example 1. RFR comprises a mixture of viral strains having protease genotypes of G48V (14/40 clones); G48V, V82A (18/40 clones); G48V, L90S (2/40 clones); G48V, 154T, V82A (1/40 clones); G48M (1/40 clones); G48V, Q61H (1/40 clones); V13I, G48V (1/40 clones); G48V, F53L, V82A (1/40 clones); and G48V, V82A, C95Y (1/40 clones). RFR2 represents a mixture of resistant strains obtained by cloning RFR by three rounds of growth at limiting dilution. RFR2 comprises a mixture of viral strains having protease genotypes of G48V, V82A (13/15 clones); G17E, G48V, V82A (1/15 clones); and G48V, V82A, N37D, N88D (1/15 clones). RFRR represents a mixture of resistant strains obtained by selection of RF against the compounds of Examples 1 and 2 and then cloning by three rounds of growth at limiting dilution. RFRR comprises a mixture of viral strains having protease genotypes of G48V, 154T, L63P, V82A (7/9 clones); G48V, 154T, L63P, V82A, N88S (1/9 clones); and G48V, 154T, L63P, G73M, V82A (1/9 clones). SF162 represents the HIV-1 strain SF-162 and SF162R represents a mixture of resistant strains obtained by selection of SF162 against the compound of Example 1. SF162R comprises a mixture of viral strains having protease genotypes of M461, F53L, L63P, A71V, N88D (2/3 clones); and M46I, F53L, L63P, A71V, N88D, Q92R (1/3 clones). 89-959 represents the HIV-1 strain 89-959 and 89-959R represents a mixture of resistant strains obtained by selection of 89-959 against the compound of Example 2. 89-959R comprises a mixture of viral strains having protease genotypes of N88S (4/5 clones); and D25N, T26A, D30N, D37N, R41K, G73D, R87K, N88S (1/4 clones). NL4 represents the HIV-1 strain HIV-1NL4-3. NL4(G48V) represents a strain having a synthetically generated site-directed mutation in the protease from glycine to valine at amino acid position number 48. NL4(I84V) represents a strain having a synthetically generated site-directed mutation in the protease from isoleucine to valine at amino acid position number 84. NL4(R8Q,M46I) represents a strain having synthetically generated site-directed mutations in the protease from arginine to glutamine at amino acid position number 8 and methionine to isoleucine at amino acid position number 46. NL4(P22-538) represents a mixture of resistant strains obtained by selection of HIV-1NL4-3 against the compound of Example 10 after 22 passages comprising protease genotypes M46I, L63P, A71V, V82F, I84V (4/10); M46I, L63P, V82F, I84V (3/10); and M46I, A71V, V82F, I84V (3/10). NL4(P37-538) represents resistant strains obtained by selection of HIV-1NL4-3 against the compound of Example 10 after 37 passages comprising protease genotype M46I, L63P, A71V, 184A. NL4(538/524) represents resistant strains obtained by selection of NL4(P22-538) against the compound of Example 5 after 24 passages comprising protease genotype M46I, L63P, A71V, 184A. NL4(538/P7-AG) represents a mixture of resistant strains obtained by selection of NL4(P22-538) against the compound of Example 12 after 7 passages comprising protease genotypes M46I, L63P, A71V, 184A; and V321, V82I. NL4(538/P24-AG) represents resistant strains obtained by selection of NL4(P22-538) against the compound of Example 12 after 24 passages comprising protease genotype M46I, L63P, A71V, 184A. NLA(P19-003) represents resistant strains obtained by selection of HIV-1^NL4-3 against the compound of Example 9 after 19 passages comprising protease genotype R8K, M46I. NL4(P34-003) represents resistant strains obtained by selection of HIV-1^NL4-3 against the compound of Example 9 after 34 passages comprising protease genotype R8K, M46I, L63P, A71V, L90M.
(§2) The viral isolate resistance results summarized in Tables 4-6 were generated according to the following assay procedure or minor modifications thereof. Assays are performed in 96-well tissue culture plates. […]

[1] = tested on: RFR2 (RFR cloned by three rounds of limiting dilution); experiment: CEM-T4 cell infection assay, reverse transcriptase readout, resistant isolate RFR2; format: cell-based, HIV-1; conditions: Human immunodeficiency virus 1, 168 h, Table 6, CEM-T4 cells, 7 days, read-out: Virus Isolate (EC50 ng/mL) RFR2
Text: as §1, §2

[2] = tested on: RFRR (resistant strains selected from RF against Examples 1 and 2); experiment: CEM-T4 cell infection assay, reverse transcriptase readout, resistant isolate RFRR; format: cell-based, HIV-1; conditions: Human immunodeficiency virus 1, 168 h, Table 6, CEM-T4 cells, 7 days, read-out: Virus Isolate (EC50 ng/mL) RFRR
Text: as §1, §2

HIV-1NL4-3 = experiment: microbe, parasite or virus in culture; format: cell-based; conditions: Human immunodeficiency virus 1, NL4
Text: RF represents the HIV-1 strain HIV-LRF and RFR represents a mixture of resistant strains obtained by selection of RF against the compound of Example 1. […] RFR2 represents a mixture of resistant strains obtained by cloning RFR by three rounds of growth at limiting dilution. […] RFRR represents a mixture of resistant strains obtained by selection of RF against the compounds of Examples 1 and 2 and then cloning by three rounds of growth at limiting dilution. […] SF162 represents the HIV-1 strain SF-162 and SF162R represents a mixture of resistant strains obtained by selection of SF162 against the compound of Example 1. […] 89-959 represents the HIV-1 strain 89-959 and 89-959R represents a mixture of resistant strains obtained by selection of 89-959 against the compound of Example 2. […] NL4 represents the HIV-1 strain HIV-1NL4-3. NL4(G48V) represents a strain having a synthetically generated site-directed mutation in the protease from glycine to valine at amino acid position number 48. NL4(I84V) represents a strain having a synthetically generated site-directed mutation in the protease from isoleucine to valine at amino acid position number 84. NL4(R8Q,M46I) represents a strain having synthetically generated site-directed mutations in the protease from arginine to glutamine at amino acid position number 8 and methionine to isoleucine at amino acid position number 46.

NL4(P37-538) = experiment: Viral isolate resistance assay per Markowitz et al., NL4(P37-538); format: cell-based, HIV-1; conditions: Human immunodeficiency virus 1; Table 9; selected against Example 10, 37 passages; read-out: Virus Isolate (EC50 nM) NL4(P37-538)
Text: as §1
The viral isolate resistance results summarized in Tables 7-11 were generated according to the assay procedures described by Markowitz et al., Journal of Virology, vol. […]

NL4(538/524) = experiment: Viral isolate resistance assay per Markowitz et al., NL4(538/524); format: cell-based, HIV-1; conditions: Human immunodeficiency virus 1; Table 10; NL4(P22-538) selected against Example 5, 24 passages
Text: as §1, with “NLA(P19-003) represents resistant strains obtained by selection of HIV-1^NL4-3 against the compound of Example 9 after 19 passages comprising protease genotype R8K, M46I. NL4(P34-003) represents resistant strains obtained by selection of HIV-1^NL4-3 against the compound of Example 9 after 34 passages comprising protease genotype R8K, M46I, L63P, A71V, L90M.” left out

NL4(538/P7-AG) = experiment: Viral isolate resistance assay per Markowitz et al., NL4(538/P7-AG); format: cell-based, HIV-1; conditions: Human immunodeficiency virus 1; Table 10; NL4(P22-538) selected against Example 12, 7 passages
Text: as §1, with “NLA(P19-003) represents resistant strains obtained by selection of HIV-1^NL4-3 against the compound of Example 9 after 19 passages comprising protease genotype R8K, M46I. NL4(P34-003) represents resistant strains obtained by selection of HIV-1^NL4-3 against the compound of Example 9 after 34 passages comprising protease genotype R8K, M46I, L63P, A71V, L90M.” left out

NL4(538/P24-AG) = experiment: Viral isolate resistance assay per Markowitz et al., NL4(538/P24-AG); format: cell-based, HIV-1; conditions: Human immunodeficiency virus 1; Table 10; NL4(P22-538) selected against Example 12, 24 passages
Text: as §1, with “NLA(P19-003) represents resistant strains obtained by selection of HIV-1^NL4-3 against the compound of Example 9 after 19 passages comprising protease genotype R8K, M46I. NL4(P34-003) represents resistant strains obtained by selection of HIV-1^NL4-3 against the compound of Example 9 after 34 passages comprising protease genotype R8K, M46I, L63P, A71V, L90M.” left out

Work on `CNCC(=O)N[C@H](C(=O)N[C@@H](Cc1ccccc1)[C@H](O)CN(CC(C)C)S(=O)(=O)c1ccc2c(c1)OCO2)C(C)(C)C` [Example 16, 2S-[[(N-methylamino)acetyl]amino]-N-[2R-hydroxy-3-[[(1,3-benzodioxol-5-yl)sulfonyl](2-methylpropyl)amino]-1S-(phenylmethyl)propyl]-3.3-dimethylbutanamide] yielded an EC50 (HIV-1RF) of 3 ng/mL (≈ 4.96 nM), an EC50 [1] of 1 ng/mL (≈ 1.65 nM) and an EC50 [2] of 9 ng/mL (≈ 14.9 nM). For the same molecule, the EC90 (HIV-1NL4-3; Table 7, EC90, read-out: Virus Isolate (EC90 nM) NL4) was 8 nM, the EC50 (HIV-1NL4-3; Table 8, read-out: Virus Isolate (EC50 nM) NL4) was 8 nM and the EC50 (NL4(P37-538)) was 40 nM. It also gave an EC50 (NL4(538/524)) of 40 nM, an EC50 (NL4(538/P7-AG)) of 40 nM and an EC50 (NL4(538/P24-AG)) of 40 nM.
